Laboratory results published in patent publication US7662851B2, “Use of specific cyklolignans” (Axelar AB, priority 2001, dated 2010).
Read-outs that look alike come from different tables or passages of the source.

Assays:
[1] = tested on: MCF-7 breast cancer cell line; experiment: Cell viability (XTT), MCF-7; assay type: cell-based; conditions: Homo sapiens, read-out: EC50 for cell viability
Description: (§1) Cell proliferation kit II (Roche Inc.) is based on colorimetric change of the yellow tetrazolium salt XTT in orange formazan dye by the respiratory chain of viable cells (Roehm, N W, et al., J Immunol Methods 142:257-265, 1991). Cells seeded at a concentration of 5000/well in 100 μl medium in a 96-well plate were treated with different drugs in the given concentration. After 24 or 48 h the cells were incubated, according to the manufacturer's protocol, with XTT labelling mixture. After 4 h the formazan dye is quantified using a scanning multiwell spectrophotometer with a 495-nm filter. The absorbance is directly correlated with the number of viable cells. The standard absorbance curve was drawn by means of untreated cells seeded at a concentration of from 1000 to 10 000 cells/well with an increasing rate of 1000 cells/well. All standards and experiments were performed in triplicates.
(§2) 12 different types of cell lines were seeded in 96-well plates (medium volume in a well was 100 μl), at a concentration of 10,000 cells/cm^2 in Minimal Essential Medium supplemented with fetal calf serum. When the cells had reached a concentration of 65,000 cells/cm^2, they were treated with different doses of podophyllotoxin and picropodophyllin for 48 h. Cell viability was then assayed (see above). […]

[2] = Local toxicity, subcutaneous osmotic pumps in nude mice; assay type: in vivo; parameters: key to Local toxicity: effects on skin and subcutaneous tissue: 0: no tissue reaction; *: light tissue reaction with hyperemia and mild inflammation; **: moderate tissue reaction with strong inflammation; ***: strong tissue reaction with necrosis and bleedings; conditions: 7 days; for Local tissue reactions: subcutaneous osmotic pump loaded with 0.25 mg
Description: Control mice were treated with the solvent. 3-6 animals were treated in each group.
The first set of experiments was carried out to investigate possible local and systemic toxic effects of podophyllotoxin, deoxypodophyllotoxin and picropodophyllin on nude mice. In the first experiment osmotic pumps loaded with either drug-free solvent, podophyllotoxin (0.25 mg), deoxypodophyllotoxin (0.25 mg) or picropodophyllin (0.25 mg) were implanted subcutaneously in the flank region. The drugs are delivered subcutaneously with a constant flow of 0.6 μl/h over 7 days. The volume of the pumps was 100 μl. After 7 days the mice were killed and the skin and subcutaneous tissue adjacent to the outlet of the pumps were analyzed and scored for tissue reactions by an experienced pathologist. There were 3 mice in each group.

[3] = Systemic toxicity, daily intraperitoneal injection in nude mice; conditions: for Signs of disease: up to 5 days
Description: Four to five-week old pathogen-free nude mice (nu/nu) were used and housed within plastic isolators in a sterile facility. […] Experimental treatments with podophyllotoxin, deoxypodophyllotoxin or picropodophyllin were performed by daily intraperitoneal injections of the compound in 100 μl volume of solvent, composed of a mixture of DMSO and physiological saline (8:2). Control mice were treated with the solvent. 3-6 animals were treated in each group. Animals were monitored three times a week for signs of disease and tumor growth. Tumor mass was estimated using the formula (d^2×D)/2, where d and D represent the small and large diameters of the tumor, respectively. The mice were carefully observed for presence of side effects and were sacrificed at the end of the experiments for histological analysis of the lesions. All experiments were performed according to the ethical guidelines for laboratory animal use, provided by institutional ethical committee.
In the next experiment we analyzed systemic effects of the drugs by injecting 100 μl intraperitoneally of each compound daily over 5 days. Two doses were injected (7 or 28 mg/kg/d) and 3-6 mice were used for each drug and dose. The mice were checked carefully daily for signs of discomfort, diseases and weight loss.

[4] = tested on: SK-MEL-28 melanoma cell line; experiment: Cell viability (XTT), SK-MEL-28; assay type: cell-based
Description: as §1, §2

[5] = tested on: fibroblast growth factor receptor (FGFR); experiment: Tyrosine phosphorylation of FGFR in intact FM55 melanoma cells; assay type: cell-based; conditions: 0.05 μM, 1 h
Description: Cells were cultured to subconfluency in 6-cm plates, and then fresh medium containing 10% FBS and the desired compounds were added for 1 h. The cells were then lyzed and subjected to immunoprecipitation using specific antibodies. Immunoprecipitates were resolved by sodium dodecyl sulphate polyacrylamide gel electrophoresis (SDS-PAGE) and transferred to nitro-cellulose membranes and incubated with anti-phosphotyrosine antibody. Antibodies to actin (in cell extract) or IGF-1R beta subunit were used as loading controls. After detection the films were scanned for quantification.
FM55 melanoma cells were cultured in the same way as described in Experiment 1. When reaching a density of 65,000 cells/cm^2 in the dishes, they were treated for 1 h with 0 (control) and 0.05 μM of picropodophyllin and podophyllotoxin, respectively. The cells were then isolated and subjected to immunoprecipitation of the IGF-1R, fibroblast growth factor receptor (FGFR), platelet-derived growth factor receptor (PDGFR), epidermal growth factor receptor (EGFR), insulin receptor (IR) and insulin substrate-1 (IRS-1) using antibodies to respective molecules. IRS-1 is a substrate of IGF-1R, and therefore its phosphorylation is dependent on phosphorylated IGF-1R. Gelelectrophoresis, Western blotting and quantification of the different signals were performed as described above.

[6] = tested on: HepG2 hepatoma cell line; experiment: Cell viability (XTT), HepG2; assay type: cell-based
Description: as §1, §2

## COc1cc([C@@H]2c3cc4c(cc3[C@H](O)[C@H]3COC(=O)[C@@H]23)OCO4)cc(OC)c1OC [Picropodophyllin, picropodophyllin]
[1]; MCF7, MCF-7, 48 h
  EC50: 90 nM
[2]
  Local tissue reactions: no visible reactions
[2]; subcutaneous osmotic pump, 7 mg/kg/d
  Local toxicity: effects on skin and subcutaneous tissue: 0
[3]; 7 mg/kg/d i.p., 1 d
  Surviving mice/Investigated mice: 3/3
[3]; 7 mg/kg/d i.p., 2 d
  Surviving mice/Investigated mice: 3/3
[3]; 7 mg/kg/d i.p., 3 d
  Surviving mice/Investigated mice: 3/3
[3]; 7 mg/kg/d i.p., 4 d
  Surviving mice/Investigated mice: 3/3
[3]; 7 mg/kg/d i.p., 5 d
  Surviving mice/Investigated mice: 3/3
[3]; 28 mg/kg/d i.p., 1 d
  Surviving mice/Investigated mice: 6/6
[3]; 28 mg/kg/d i.p., 2 d
  Surviving mice/Investigated mice: 6/6
[3]; 28 mg/kg/d i.p., 3 d
  Surviving mice/Investigated mice: 6/6
[3]; 28 mg/kg/d i.p., 4 d
  Surviving mice/Investigated mice: 6/6
[3]; 28 mg/kg/d i.p., 5 d
  Surviving mice/Investigated mice: 6/6
[3]; high dose (28 mg/kg/d) i.p. daily
  Signs of disease: did not exhibit any evidence of disease
[3]; low dose (7 mg/kg/d) i.p. daily
  Signs of disease: did not exhibit any evidence of disease
[4]; Homo sapiens, SK-MEL-28, 48 h; read-out: EC50 for cell viability
  EC50: 30 nM
[5]
  Level of phosphorylation in intact cells, substrate FGFR: 100 % OD
[6]; Homo sapiens, HepG2, 48 h; read-out: EC50 for cell viability
  EC50: > 15000 nM

## COc1cc([C@@H]2c3cc4c(cc3[C@H](O)[C@H]3COC(=O)[C@H]23)OCO4)cc(OC)c1OC [Podophyllotoxin, podophyllotoxin]
[1]; MCF7, 48 h
  EC50: 70 nM
[2]
  Local tissue reactions: severe tissue reactions with necrosis, bleeding and inflammation
[3]; 7 mg/kg/d i.p., 1 d
  Surviving mice/Investigated mice: 3/3
[3]; 7 mg/kg/d i.p., 2 d
  Surviving mice/Investigated mice: 1/3
[3]; 7 mg/kg/d i.p., 3 d
  Surviving mice/Investigated mice: 0/3
[3]; 28 mg/kg/d i.p., 1 d
  Surviving mice/Investigated mice: 2/6
[3]; 28 mg/kg/d i.p., 2 d
  Surviving mice/Investigated mice: 0/6
[3]; high dose (28 mg/kg/d) i.p.
  Animals dead within 2 days: 100%
[3]; low dose (7 mg/kg/d) i.p.
  Animals dead within 2 days: 67%
[4]; Homo sapiens, SK-MEL-28, 48 h, read-out: EC50 for cell viability
  EC50: 20 nM
[5]
  Level of phosphorylation in intact cells, substrate FGFR: 105 % OD
[6]; Homo sapiens, HepG2, 48 h, read-out: EC50 for cell viability
  EC50: > 15000 nM
